Drawing on publication PMC9078263 (RSC Advances, 2018), this text covers Km for 3 compounds.

Some results are limits rather than exact numbers.

The target of this test is New Delhi metallo-β-lactamase 1 (NDM-1) (Acinetobacter baumannii, UniProt F8UNN7). Description: steady-state kinetics of hydrolysis. The test is classed as biochemical.
New Delhi metallo-β-lactamase 1 (NDM-1), sequence (F8UNN7 1-270): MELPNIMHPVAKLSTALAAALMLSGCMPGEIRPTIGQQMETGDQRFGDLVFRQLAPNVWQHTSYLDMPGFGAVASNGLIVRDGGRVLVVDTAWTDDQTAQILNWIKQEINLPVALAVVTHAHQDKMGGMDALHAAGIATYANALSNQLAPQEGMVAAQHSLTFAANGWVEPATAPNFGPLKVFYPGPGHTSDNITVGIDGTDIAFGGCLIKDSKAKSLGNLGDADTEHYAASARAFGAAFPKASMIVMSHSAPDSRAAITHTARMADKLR

Consider `CO[C@@]1(NC(=O)Cc2cccs2)C(=O)N2C(C(=O)O)=C(COC(N)=O)CS[C@@H]21` [cefoxitin], for which the Michaelis-Menten constant (Km) was over 60 µM. With `CC(C)(O/N=C(\C(=O)N[C@@H]1C(=O)N2C(C(=O)[O-])=C(C[n+]3ccccc3)CS[C@H]12)c1csc(N)n1)C(=O)O` [ceftazidime], the Michaelis constant (Km) was over 60 µM. As for `C[C@@H](O)[C@H]1C(=O)N2C(C(=O)O)=C(S[C@@H]3CN[C@H](C(=O)N(C)C)C3)[C@H](C)[C@H]12` [meropenem], the figure is over 60 µM.
